Literature values, collected in patent US9549940B2, “Sustained-release formulations of topiramate” (Supernus Pharmaceuticals, Inc., priority 2006, dated 2017).

What was measured:
[1] = room temperature
[2] = oral administration of an immediate release dosage form

solubility of topiramate in water [1]: about 9.8 mg/ml
time of plasma drug concentration peak [2]: approximately 2 hours
Structure (SMILES): CC1(C)OC2[C@@H](CO[C@@]3(COS(N)(=O)=O)OC(C)(C)O[C@@H]23)O1 (stereo partly drawn) [topiramate, 2,3:4,5-Di-O-isopropylidene-beta-D-fructopyranose sulfamate]
